The text below walks through data of ChEMBL document CHEMBL6134828, “Discovery, synthesis, and biological mechanism evaluation of novel quinoline derivatives as potent NLRP3 inhibitors” (Eur J Med Chem, 2025).

The source made the active and inactive calls. The calls are words filed in the database; no cut-off is given here.

Data set [1] addresses NACHT, LRR and PYD domains-containing protein 3 (Mus musculus, UniProt Q8R4B8). Kind of data set: Inhibition of NLRP3 in mouse J774.A1 cells assessed as reduction IL-1beta release by ELISA. Format: cell-based. Background: ELISA stands for enzyme-linked immunosorbent assay.
In data set [2] the test system is Mus musculus. Kind of data set: Antiinflammatory activity against DSS-induced ulcerative colitis male C57BL/6 mouse model assessed as amelioration of mucosal ulceration in colonic tissue at 7.5 to 30 mg/kg administered via oral gavage for 4 days. Format: functional, organism-based. The conditions noted are these: dose 7.5-30 mg/kg, time 4.0 day.
Data set [3] relates to Mus musculus. Kind of data set: Antiinflammatory activity against DSS-induced ulcerative colitis male C57BL/6 mouse model assessed as reduction in cleaved GSDMD level in colonic tissue at 7.5 to 30 mg/kg administered via oral gavage for 4 days by Western blot analysis. In kind it is functional, organism-based. The conditions noted are these: dose 7.5-30 mg/kg, time 4.0 day.

Data set [4] deals with Mus musculus. Kind of data set: In vivo inhibition of NLRP3 in colonic tissue of DSS-induced ulcerative colitis male C57BL/6 mouse model at 7.5 to 30 mg/kg administered via oral gavage for 4 days by Western blot analysis. Format: functional, organism-based. The conditions noted are these: dose 7.5-30 mg/kg, time 4.0 day.
Data set [5] concerns the target NLRP3-NEK7 (Mus musculus) (UniProt Q8R4B8+Q9ES74). Kind of data set: Inhibition of NLRP3/NEK7 protein-protein interaction in LPS/nigericin-induced mouse J774.A1 cells incubated for 6 hrs by coimmunoprecipitation analysis. Format: cell-based.
Data set [6] concerns the target NACHT, LRR and PYD domains-containing protein 3 (Mus musculus) (UniProt Q8R4B8). Kind of data set: Inhibition of NLRP3 inflammasome activation in LPS/nigericin-induced mouse BMDM cells assessed as reduction in IL-1beta release by ELISA. Format: cell-based. Particulars: dose 0.125-4 µM.
Data set [7] shares this target. Kind of data set: Inhibition of NLRP3 inflammasome activation in LPS/nigericin-induced mouse J774.A1 cells assessed as inhibition of mature IL-1beta release at 0.2 to 3.2 uM by Western blot analysis. Format: cell-based. Particulars: dose 0.2-3.2 µM.
The next data set concerns HEK-293T. Kind of data set: Cytotoxicity against HEK293T cells at 0.4 to 6.4 uM incubated for 24 hrs by CCK-8 assay. In kind it is toxicity, cell-based. The conditions noted are these: human, dose 0.4-6.4 µM.
Data set [8] deals with J774.A1. Kind of data set: Effect on p65 level in LPS-induced mouse J774.A1 cells at 0.2 to 3.2 uM pre-incubated with compound for 2 hrs followed by LPS-induction and measured after 5 hrs by Western blot analysis. Particulars: dose 0.2-3.2 µM, time 7.0 hrs. Format: functional, cell-based. On the technique in general: Immunoblotting shows a protein as a band on a membrane.

For data set [9], the target named is T1, Apoptosis-associated speck-like protein containing a CARD (Mus musculus) (UniProt Q9EPB4).
T1 sequence (whole entry): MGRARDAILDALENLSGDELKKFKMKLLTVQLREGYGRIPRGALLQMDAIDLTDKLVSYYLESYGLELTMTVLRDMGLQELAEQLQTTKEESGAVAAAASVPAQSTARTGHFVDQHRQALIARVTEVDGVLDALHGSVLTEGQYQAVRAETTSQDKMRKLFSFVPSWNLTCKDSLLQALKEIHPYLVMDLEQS
Kind of data set: Inhibition of LPS/nigericin-induced ASC oligomerization in mouse J774.A1 cells at 0.8 to 3.2 uM by immunoblot analysis. In kind it is cell-based. Particulars: dose 0.8-3.2 µM.

Data set [10] relates to Mus musculus. Kind of data set: Antiinflammatory activity against DSS-induced ulcerative colitis male C57BL/6 mouse model assessed as amelioration of crypt loss in colonic tissue at 7.5 to 30 mg/kg administered via oral gavage for 4 days. In kind it is functional, organism-based. Particulars: dose 7.5-30 mg/kg, time 4.0 day.
Data set [11] relates to Mus musculus. Kind of data set: Antiinflammatory activity against DSS-induced ulcerative colitis male C57BL/6 mouse model assessed as reduction in IL-1beta level in colonic tissue at 7.5 to 30 mg/kg administered via oral gavage for 4 days by ELISA. In kind it is functional, organism-based. The conditions noted are these: dose 7.5-30 mg/kg, time 4.0 day.
The subject of data set [12] is J774.A1. Kind of data set: Effect on TNF-alpha secretion in LPS-induced mouse J774.A1 cells at 0.2 to 3.2 uM pre-incubated with compound for 2 hrs followed by LPS-induction and measured after 5 hrs by ELISA. In kind it is functional, cell-based. The conditions noted are these: dose 0.2-3.2 µM, time 7.0 hrs.
Data set [13] deals with J774.A1. Kind of data set: Cytotoxicity against mouse J774.A1 cells at 0.4 to 6.4 uM incubated for 24 hrs by CCK-8 assay. In kind it is toxicity, cell-based. The conditions noted are these: j774.a1, 24 h, dose 0.4-6.4 µM. For orientation: Tetrazolium dyes change colour on reduction, which living cells bring about.
The test system of data set [14] is J774.A1. Kind of data set: Effect on phosphorylated p65 level in LPS-induced mouse J774.A1 cells at 0.2 to 3.2 uM pre-incubated with compound for 2 hrs followed by LPS-induction and measured after 5 hrs by Western blot analysis. In kind it is functional, cell-based. The conditions noted are these: dose 0.2-3.2 µM, time 7.0 hrs.
Data set [15] has as its system Mus musculus. Kind of data set: Antiinflammatory activity against DSS-induced ulcerative colitis male C57BL/6 mouse model assessed as reduction in caspase-1 level in colonic tissue at 7.5 to 30 mg/kg administered via oral gavage for 4 days by Western blot analysis. In kind it is functional, organism-based. The conditions noted are these: dose 7.5-30 mg/kg, time 4.0 day.

The target in data set [16] is NACHT, LRR and PYD domains-containing protein 3 (Mus musculus) (UniProt Q8R4B8). Kind of data set: Inhibition of LPS/nigericin-induced NLRP3 oligomerization in mouse J774.A1 cells at 3.2 uM by SDS-PAGE analysis. In kind it is cell-based.
Data set [17] deals with Mus musculus. Kind of data set: Antiinflammatory activity against DSS-induced ulcerative colitis male C57BL/6 mouse model assessed as increase in colon length at 7.5 to 30 mg/kg administered via oral gavage for 4 days. Format: functional, organism-based. The conditions noted are these: dose 7.5-30 mg/kg, time 4.0 day.
Data set [18] addresses NACHT, LRR and PYD domains-containing protein 3 (Mus musculus) (UniProt Q8R4B8). Kind of data set: Inhibition of NLRP3 inflammasome activation in LPS/nigericin-induced mouse J774.A1 cells assessed as inhibition of caspase-1 p20 subunit formation at 0.2 to 3.2 uM by Western blot analysis. In kind it is cell-based. The conditions noted are these: dose 0.2-3.2 µM.
Data set [19] concerns Mus musculus. Kind of data set: Antiinflammatory activity against DSS-induced ulcerative colitis male C57BL/6 mouse model assessed as reduction in fecal blood index at 7.5 to 30 mg/kg administered via oral gavage for 4 days. Format: functional, organism-based. Particulars: dose 7.5-30 mg/kg, time 4.0 day.
Data set [20] has as its target NACHT, LRR and PYD domains-containing protein 3 (Mus musculus) (UniProt Q8R4B8). Kind of data set: Inhibition of NLRP3 inflammasome activation in LPS/nigericin-induced mouse J774.A1 cells assessed as reduction in LDH level […]. Format: cell-based. Particulars: dose 0.2-3.2 µM.
For data set [21], the system named is Mus musculus. Kind of data set: Antiinflammatory activity against DSS-induced ulcerative colitis male C57BL/6 mouse model assessed as amelioration of epithelial damage in colonic tissue at 7.5 to 30 mg/kg administered via oral gavage for 4 days. In kind it is functional, organism-based. Particulars: dose 7.5-30 mg/kg, time 4.0 day.
Data set [22] addresses Nlrp3/Pycard (Mus musculus) (UniProt Q8R4B8+Q9EPB4). Kind of data set: Inhibition of NLRP3/ASC protein-protein interaction in LPS/nigericin-induced mouse J774.A1 cells at 3 uM by coimmunoprecipitation analysis. Format: cell-based.
Data set [23] addresses NACHT, LRR and PYD domains-containing protein 3 (Mus musculus) (UniProt Q8R4B8). Kind of data set: Inhibition of NLRP3 inflammasome activation in LPS/nigericin-primed mouse BMDM cells assessed as inhibition of ASC speck formation incubated for 1 hr by DAPI staining based immunofluorescence analysis. In kind it is cell-based.
For data set [24] the target is unchanged. Kind of data set: Inhibition of NLRP3 inflammasome activation in LPS/nigericin-induced mouse J774.A1 cells assessed as inhibition of GSDMD cleavage at 0.2 to 3.2 uM by Western blot analysis. In kind it is cell-based. Particulars: dose 0.2-3.2 µM.
The subject of data set [25] is Mus musculus. Kind of data set: Effect on DSS-induced body weight loss in male C57BL/6 mouse model of ulcerative colitis at 7.5 to 30 mg/kg administered via oral gavage for 4 days. Format: functional, organism-based. Particulars: dose 7.5-30 mg/kg, time 4.0 day.
For data set [26], the target named is NACHT, LRR and PYD domains-containing protein 3 (Mus musculus) (UniProt Q8R4B8). Kind of data set: Inhibition of NLRP3 inflammasome activation in LPS/nigericin-induced mouse J774.A1 cells assessed as reduction in IL-1beta release by ELISA. In kind it is cell-based. The conditions noted are these: dose 0.125-4 µM.
In data set [27] the test system is J774.A1. Kind of data set: Inhibition of NFkappaB signaling pathway in LPS-induced mouse J774.A1 cells assessed as reduction in IkappaBalpha phosphorylation at 3.2 uM pre-incubated with compound for 2 hrs followed by LPS-induction and measured after 5 hrs by Western blot analysis. Format: cell-based. The conditions noted are these: time 7.0 hrs.

Chain of NACHT, LRR and PYD domains-containing protein 3 (Mus musculus) (Q8R4B8 whole entry, the tested form may be a part): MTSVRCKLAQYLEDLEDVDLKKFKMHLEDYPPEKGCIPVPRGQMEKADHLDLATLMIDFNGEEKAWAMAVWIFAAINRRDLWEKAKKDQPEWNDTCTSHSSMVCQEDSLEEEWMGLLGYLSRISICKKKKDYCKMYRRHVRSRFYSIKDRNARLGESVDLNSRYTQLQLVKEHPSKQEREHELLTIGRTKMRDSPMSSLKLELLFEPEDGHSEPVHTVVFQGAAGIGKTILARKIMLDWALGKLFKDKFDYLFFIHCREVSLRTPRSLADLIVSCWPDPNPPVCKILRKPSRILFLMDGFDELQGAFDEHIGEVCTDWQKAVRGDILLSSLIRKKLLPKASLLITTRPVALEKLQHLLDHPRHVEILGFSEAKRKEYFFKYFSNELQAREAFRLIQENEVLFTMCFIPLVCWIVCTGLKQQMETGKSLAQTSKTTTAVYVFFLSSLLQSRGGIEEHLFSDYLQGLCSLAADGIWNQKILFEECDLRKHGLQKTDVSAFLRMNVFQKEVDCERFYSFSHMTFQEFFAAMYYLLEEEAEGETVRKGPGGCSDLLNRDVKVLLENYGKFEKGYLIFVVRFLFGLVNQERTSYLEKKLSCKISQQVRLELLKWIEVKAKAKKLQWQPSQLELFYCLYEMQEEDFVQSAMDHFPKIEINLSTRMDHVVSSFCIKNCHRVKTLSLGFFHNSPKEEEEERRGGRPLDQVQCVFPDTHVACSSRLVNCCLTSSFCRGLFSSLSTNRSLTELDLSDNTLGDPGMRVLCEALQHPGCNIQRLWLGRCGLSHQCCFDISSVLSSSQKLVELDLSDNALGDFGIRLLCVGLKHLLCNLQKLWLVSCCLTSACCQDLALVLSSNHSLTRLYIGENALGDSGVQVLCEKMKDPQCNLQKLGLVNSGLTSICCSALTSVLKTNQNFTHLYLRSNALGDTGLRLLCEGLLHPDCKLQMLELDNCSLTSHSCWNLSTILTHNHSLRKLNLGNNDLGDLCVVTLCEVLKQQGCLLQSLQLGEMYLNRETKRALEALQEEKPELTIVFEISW
Chain of NACHT, LRR and PYD domains-containing protein 3 (Q8R4B8 whole entry, the tested form may be a part): as above
Chain of NLRP3-NEK7 (Mus musculus) (Q8R4B8 whole entry, looked up, the tested form may be a part): as the sequence (Q8R4B8 whole entry, the tested form may be a part) above
Chain of NLRP3-NEK7 (Mus musculus) (Q9ES74 whole entry, looked up, the tested form may be a part): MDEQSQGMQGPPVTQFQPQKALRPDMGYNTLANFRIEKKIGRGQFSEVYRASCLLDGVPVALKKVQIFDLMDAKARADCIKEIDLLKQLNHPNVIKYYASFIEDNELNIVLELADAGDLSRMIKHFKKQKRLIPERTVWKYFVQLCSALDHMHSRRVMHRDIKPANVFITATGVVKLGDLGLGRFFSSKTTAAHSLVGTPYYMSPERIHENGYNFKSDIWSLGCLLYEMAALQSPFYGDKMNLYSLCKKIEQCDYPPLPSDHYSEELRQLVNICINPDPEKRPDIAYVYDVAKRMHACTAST
Chain of Nlrp3/Pycard (Mus musculus) (Q8R4B8 whole entry, looked up, one chain of several, the tested form may be a part): as the sequence (Q8R4B8 whole entry, the tested form may be a part) above

Take `O=C(NC1CC(F)(F)C1)c1cc(-c2ccccc2)nc2ccccc12`: the IC50 (as a rule, the midpoint of a concentration-inhibition curve) in data set [1] amounted to 5800 nM.

Take `CC[C@H](NC(=O)c1cc(-c2ccccc2)nc2ccccc12)c1ccccc1` [AZD-7624]: the IC50 in [1] was 1300 nM.

For `O=C(Nc1ccccc1)c1cc(-c2ccccc2)nc2ccccc12`, the IC50 in data set [1] worked out at 2070 nM.

Turning to `CC[C@H](NC(=O)c1cc(-c2cccc(F)c2)nc2ccccc12)c1ccccc1`, in [1], the IC50 stood at 2820 nM.

Consider `CCN(CC)CCCC(C)NC(=O)c1cc(-c2ccccc2)nc2ccccc12` (stereo unspecified), for which the IC50 in data set [1] came out at 11400 nM.

Regarding `CC[C@H](NC(=O)c1c(C)c(-c2cccc(F)c2)nc2cc(Br)ccc12)c1ccccc1`, the IC50 in data set [1] is 920 nM.

`CC[C@H](NC(=O)c1c(C)c(-c2ccc(F)cc2)nc2ccccc12)c1ccccc1`: the IC50 in data set [1] stood at 1120 nM.

`CC[C@H](NC(=O)c1c(C)c(-c2cccc(Cl)c2)nc2ccccc12)c1ccccc1`: the IC50 in data set [1] came to 890 nM.

For the compound `O=C(Nc1ccccc1OCc1ccccc1)c1cc(-c2ccccc2)nc2ccccc12`, the IC50 in data set [1] is 77000 nM.

On to `CC[C@H](NC(=O)c1c(C)c(-c2ccc(C(F)(F)F)cc2)nc2ccccc12)c1ccccc1`, for which, in data set [1], the concentration for half-maximal inhibition (IC50) was found to be 2750 nM.

For the compound `CC[C@H](NC(=O)c1c(C)c(-c2cccc(F)c2)nc2c([N+](=O)[O-])cccc12)c1ccccc1`, the result with Mus musculus [2], in the data set with Mus musculus [3], in the data set with Mus musculus [10], with Mus musculus [11], in the data set on Mus musculus [15] and with Mus musculus [17] was Active. For the same compound, the outcome with Mus musculus [19] and with Mus musculus [21] was Active. Moreover, the inhibition result (with Mus musculus [4]; in [7]; in data set [9]; in data set [16]; in [18]; in [22]) was “Active” throughout. In addition, the inhibition entry in data set [23] and in [24] was “Active” each time. In addition, the inhibition result in data set [5] is “inactive”. Also, the inhibition entry in data set [6] was “Dose-dependent-effect”; in [20] it was “Dose-dependent-effect”; in data set [26], “Dose-dependent-effect”; in the data set on J774.A1 [27], “Active; Slight Inhibitory Effect On P-Ikappabalpha”. The Activity entry with HEK-293T was “Non-toxic”; with J774.A1 [8], “No effect”; in the data set on J774.A1 [12], “No effect”; in the data set on J774.A1 [13], “Non-toxic”; in the data set with J774.A1 [14], “No effect”; with Mus musculus [25], “No effect”. Besides, the IC50 in data set [1] is 180 nM.

For `O=C(N[C@H]1CCc2ccccc21)c1cc(-c2ccccc2)nc2ccccc12`, in [1], the IC50 stood at 4510 nM.

On to `CCC(C)NC(=O)c1cc(-c2ccccc2)nc2ccccc12` (stereo unspecified), for which the IC50 in data set [1] came to 39500 nM.

For `CSc1ccccc1NC(=O)c1cc(-c2ccccc2)nc2ccccc12`, in [1], the IC50 was determined as 3080 nM.

As to `CC[C@H](NC(=O)c1cc(Cl)nc2ccccc12)c1ccccc1`, the 50% inhibitory concentration (IC50) in [1] amounted to 84700 nM.

With `CC[C@H](NC(=O)c1c(C)c(-c2cccc(F)c2)nc2ccc(OC)cc12)c1ccccc1`, the IC50 in data set [1] came out at 1040 nM.

As to `Cc1ccccc1NC(=O)c1cc(-c2ccccc2)nc2ccccc12`, in data set [1], the IC50 was 13800 nM.

For the compound `CC[C@H](NC(=O)c1c(C)c(-c2cccc(F)c2)nc2ccc(F)cc12)c1ccccc1`, the IC50 in data set [1] was 1360 nM.

Take `CC[C@H](NC(=O)c1c(C)c(-c2cccc(F)c2)nc2c(OC)cccc12)c1ccccc1`: the IC50 in [1] is 1060 nM.
